In PubChem BioAssay AID1259407 (Chemical Carcinogenesis Research Information System (CCRIS), 2018) one finds mutagenic call data, which are given here for four molecules.

This series relates to CCRIS mutagenicity, Ames/micronucleus/aberration tests. The series is described as follows: CCRIS mutagenicity studies.
[1] abbreviates: Test System: AMES SALMONELLA TYPHIMURIUM, Strain/Indicator: TA98, Metabolic Activation: NONE, Method: PREINCUBATION
Setting [2] is: Test System: AMES SALMONELLA TYPHIMURIUM, Strain/Indicator: TA100, Metabolic Activation: NONE, Method: PREINCUBATION
[3] abbreviates: Test System: AMES SALMONELLA TYPHIMURIUM, Strain/Indicator: TA100, Metabolic Activation: NONE, Method: STANDARD PLATE.

The source made the active and inactive calls. No rule for the calls is given here.

In the case of `O=C1c2ccccc2C(=O)C1(O)O`, the mutagenic call was “inactive; negative” (Test System: AMES SALMONELLA TYPHIMURIUM, Strain/Indicator: TA97, Metabolic Activation: HAMSTER, LIVER, S-9, AROCLOR 1254 (10%), Method: PREINCUBATION); “inactive; negative” (Test System: AMES SALMONELLA TYPHIMURIUM, Strain/Indicator: TA97, Metabolic Activation: HAMSTER, LIVER, S-9, AROCLOR 1254 (30%), Method: PREINCUBATION); “inactive; negative” (Test System: AMES SALMONELLA TYPHIMURIUM, Strain/Indicator: TA97, Metabolic Activation: NONE, Method: PREINCUBATION); “inactive; negative” (Test System: AMES SALMONELLA TYPHIMURIUM, Strain/Indicator: TA97, Metabolic Activation: RAT, LIVER, S-9, AROCLOR 1254 (10%), Method: PREINCUBATION); “inactive; negative” (Test System: AMES SALMONELLA TYPHIMURIUM, Strain/Indicator: TA97, Metabolic Activation: RAT, LIVER, S-9, AROCLOR 1254 (30%), Method: PREINCUBATION); “inactive; negative” (Test System: AMES SALMONELLA TYPHIMURIUM, Strain/Indicator: TA98, Metabolic Activation: HAMSTER, LIVER, S-9, AROCLOR 1254 (10%), Method: PREINCUBATION). In addition, the mutagenic call was “inactive; negative” (Test System: AMES SALMONELLA TYPHIMURIUM, Strain/Indicator: TA98, Metabolic Activation: HAMSTER, LIVER, S-9, AROCLOR 1254 (30%), Method: PREINCUBATION); “inactive; negative” under setting [1]; “inactive; negative” (Test System: AMES SALMONELLA TYPHIMURIUM, Strain/Indicator: TA98, Metabolic Activation: RAT, LIVER, S-9, AROCLOR 1254 (10%), Method: PREINCUBATION); “inactive; negative” (Test System: AMES SALMONELLA TYPHIMURIUM, Strain/Indicator: TA98, Metabolic Activation: RAT, LIVER, S-9, AROCLOR 1254 (30%), Method: PREINCUBATION); “inactive; negative” (Test System: AMES SALMONELLA TYPHIMURIUM, Strain/Indicator: TA100, Metabolic Activation: HAMSTER, LIVER, S-9, AROCLOR 1254 (10%), Method: PREINCUBATION); “inactive; negative” (Test System: AMES SALMONELLA TYPHIMURIUM, Strain/Indicator: TA100, Metabolic Activation: HAMSTER, LIVER, S-9, AROCLOR 1254 (30%), Method: PREINCUBATION). In addition, the mutagenic call was “inactive; negative” under setting [2]; “inactive; negative” (Test System: AMES SALMONELLA TYPHIMURIUM, Strain/Indicator: TA100, Metabolic Activation: RAT, LIVER, S-9, AROCLOR 1254 (5%), Method: PREINCUBATION); “inactive; negative” (Test System: AMES SALMONELLA TYPHIMURIUM, Strain/Indicator: TA100, Metabolic Activation: RAT, LIVER, S-9, AROCLOR 1254 (10%), Method: PREINCUBATION); “inactive; negative” (Test System: AMES SALMONELLA TYPHIMURIUM, Strain/Indicator: TA100, Metabolic Activation: RAT, LIVER, S-9, AROCLOR 1254 (30%), Method: PREINCUBATION); “inactive; negative” (Test System: AMES SALMONELLA TYPHIMURIUM, Strain/Indicator: TA1535, Metabolic Activation: HAMSTER, LIVER, S-9, AROCLOR 1254 (10%), Method: PREINCUBATION); “inactive; negative” (Test System: AMES SALMONELLA TYPHIMURIUM, Strain/Indicator: TA1535, Metabolic Activation: HAMSTER, LIVER, S-9, AROCLOR 1254 (30%), Method: PREINCUBATION). Moreover, the mutagenic call is “inactive; negative” (Test System: AMES SALMONELLA TYPHIMURIUM, Strain/Indicator: TA1535, Metabolic Activation: NONE, Method: PREINCUBATION); “inactive; negative” (Test System: AMES SALMONELLA TYPHIMURIUM, Strain/Indicator: TA1535, Metabolic Activation: RAT, LIVER, S-9, AROCLOR 1254 (10%), Method: PREINCUBATION); “inactive; negative” (Test System: AMES SALMONELLA TYPHIMURIUM, Strain/Indicator: TA1535, Metabolic Activation: RAT, LIVER, S-9, AROCLOR 1254 (30%), Method: PREINCUBATION); “inactive; negative” (Test System: AMES SALMONELLA TYPHIMURIUM, Strain/Indicator: TA1537, Metabolic Activation: HAMSTER, LIVER, S-9, AROCLOR 1254 (10%), Method: PREINCUBATION); “inactive; negative” (Test System: AMES SALMONELLA TYPHIMURIUM, Strain/Indicator: TA1537, Metabolic Activation: HAMSTER, LIVER, S-9, AROCLOR 1254 (30%), Method: PREINCUBATION); “inactive; negative” (Test System: AMES SALMONELLA TYPHIMURIUM, Strain/Indicator: TA1537, Metabolic Activation: RAT, LIVER, S-9, AROCLOR 1254 (10%), Method: PREINCUBATION). In addition, the mutagenic call (Test System: AMES SALMONELLA TYPHIMURIUM, Strain/Indicator: TA1537, Metabolic Activation: RAT, LIVER, S-9, AROCLOR 1254 (30%), Method: PREINCUBATION) was “inactive; negative”.

Take `Nc1cc([N+](=O)[O-])ccc1-c1ccc([N+](=O)[O-])cc1`: the mutagenic call under setting [1] was “active; positive”; the mutagenic call (Test System: AMES SALMONELLA TYPHIMURIUM, Strain/Indicator: TA98, Metabolic Activation: RAT LIVER S-9, AROCLOR 1254, Method: PREINCUBATION) was “active; positive”; the mutagenic call under setting [2] is “active; positive”; the mutagenic call under setting [3] was “active; positive”; the mutagenic call (Test System: AMES SALMONELLA TYPHIMURIUM, Strain/Indicator: TA100, Metabolic Activation: RAT LIVER S-9, AROCLOR 1254, Method: PREINCUBATION) is “active; positive”; the mutagenic call (Test System: AMES SALMONELLA TYPHIMURIUM, Strain/Indicator: TA104, Metabolic Activation: NONE, Method: STANDARD PLATE) is “active; positive”. Besides, the mutagenic call reads like this: (Test System: AMES SALMONELLA TYPHIMURIUM, Strain/Indicator: TA4001, Metabolic Activation: NONE, Method: STANDARD PLATE) “inactive; negative”; (Test System: AMES SALMONELLA TYPHIMURIUM, Strain/Indicator: TA4006, Metabolic Activation: NONE, Method: STANDARD PLATE) “active; positive”; (Test System: AMES SALMONELLA TYPHIMURIUM, Strain/Indicator: TA7002, Metabolic Activation: NONE, Method: STANDARD PLATE) “active; positive”; (Test System: AMES SALMONELLA TYPHIMURIUM, Strain/Indicator: TA7002, Metabolic Activation: RAT LIVER S-9, AROCLOR 1254, Method: STANDARD PLATE) “active; positive”; (Test System: AMES SALMONELLA TYPHIMURIUM, Strain/Indicator: TA7003, Metabolic Activation: NONE, Method: STANDARD PLATE) “active; positive”; (Test System: AMES SALMONELLA TYPHIMURIUM, Strain/Indicator: TA7003, Metabolic Activation: RAT LIVER S-9, AROCLOR 1254, Method: STANDARD PLATE) “active; positive”. The mutagenic call is “active; positive” (Test System: AMES SALMONELLA TYPHIMURIUM, Strain/Indicator: TA7004, Metabolic Activation: NONE, Method: STANDARD PLATE); “active; positive” (Test System: AMES SALMONELLA TYPHIMURIUM, Strain/Indicator: TA7004, Metabolic Activation: RAT LIVER S-9, AROCLOR 1254, Method: STANDARD PLATE); “active; positive” (Test System: AMES SALMONELLA TYPHIMURIUM, Strain/Indicator: TA7005, Metabolic Activation: NONE, Method: STANDARD PLATE); “active; positive” (Test System: AMES SALMONELLA TYPHIMURIUM, Strain/Indicator: TA7005, Metabolic Activation: RAT LIVER S-9, AROCLOR 1254, Method: STANDARD PLATE); “active; positive” (Test System: AMES SALMONELLA TYPHIMURIUM, Strain/Indicator: TA7006, Metabolic Activation: NONE, Method: STANDARD PLATE); “active; positive” (Test System: AMES SALMONELLA TYPHIMURIUM, Strain/Indicator: TA7006, Metabolic Activation: RAT LIVER S-9, AROCLOR 1254, Method: STANDARD PLATE). Moreover, the mutagenic call is “active; positive” (Test System: Ames Salmonella typhimurium, Strain/Indicator: TA102, Metabolic Activation: None, Method: Preincubation) and “inactive; negative” (Test System: Ames Salmonella typhimurium, Strain/Indicator: TA102, Metabolic Activation: Rat, liver, S-9, Aroclor 1254 (4%), Method: Preincubation).

For the molecule `Clc1ncnc2nc[nH]c12`, the mutagenic call under setting [3] is “active; positive”.

Regarding `O[C@H]1C=Cc2c(cc3c4c(c5ccccc5cc24)-c2ccccc2-3)[C@@H]1O`, the mutagenic call was “active; positive” (Test System: AMES SALMONELLA TYPHIMURIUM, Strain/Indicator: TA100, Metabolic Activation: MOUSE, LIVER, S-9, 3-METHYLCHOLANTHRENE, Method: STANDARD PLATE) and “active; positive” (Test System: AMES SALMONELLA TYPHIMURIUM, Strain/Indicator: TA100, Metabolic Activation: RAT, LIVER, S-9, 3-METHYLCHOLANTHRENE, Method: STANDARD PLATE).
